Source: ChEMBL document CHEMBL1201862, “PubChem BioAssay data set” (2004)
Activity calls are given as the source filed them.

Columns and labels:
[1] = biological target: T1, Short transient receptor potential channel 4 (Mus musculus, UniProt Q9QUQ5); test: TRPC4 positive allosteric modulators, dose response, cell-based, HEK293 TRPC4/mu-opioid, Fluo-4 calcium, EC20 DAMGO (AID 434941); assay type: functional
T1 sequence (Q9QUQ5 whole entry): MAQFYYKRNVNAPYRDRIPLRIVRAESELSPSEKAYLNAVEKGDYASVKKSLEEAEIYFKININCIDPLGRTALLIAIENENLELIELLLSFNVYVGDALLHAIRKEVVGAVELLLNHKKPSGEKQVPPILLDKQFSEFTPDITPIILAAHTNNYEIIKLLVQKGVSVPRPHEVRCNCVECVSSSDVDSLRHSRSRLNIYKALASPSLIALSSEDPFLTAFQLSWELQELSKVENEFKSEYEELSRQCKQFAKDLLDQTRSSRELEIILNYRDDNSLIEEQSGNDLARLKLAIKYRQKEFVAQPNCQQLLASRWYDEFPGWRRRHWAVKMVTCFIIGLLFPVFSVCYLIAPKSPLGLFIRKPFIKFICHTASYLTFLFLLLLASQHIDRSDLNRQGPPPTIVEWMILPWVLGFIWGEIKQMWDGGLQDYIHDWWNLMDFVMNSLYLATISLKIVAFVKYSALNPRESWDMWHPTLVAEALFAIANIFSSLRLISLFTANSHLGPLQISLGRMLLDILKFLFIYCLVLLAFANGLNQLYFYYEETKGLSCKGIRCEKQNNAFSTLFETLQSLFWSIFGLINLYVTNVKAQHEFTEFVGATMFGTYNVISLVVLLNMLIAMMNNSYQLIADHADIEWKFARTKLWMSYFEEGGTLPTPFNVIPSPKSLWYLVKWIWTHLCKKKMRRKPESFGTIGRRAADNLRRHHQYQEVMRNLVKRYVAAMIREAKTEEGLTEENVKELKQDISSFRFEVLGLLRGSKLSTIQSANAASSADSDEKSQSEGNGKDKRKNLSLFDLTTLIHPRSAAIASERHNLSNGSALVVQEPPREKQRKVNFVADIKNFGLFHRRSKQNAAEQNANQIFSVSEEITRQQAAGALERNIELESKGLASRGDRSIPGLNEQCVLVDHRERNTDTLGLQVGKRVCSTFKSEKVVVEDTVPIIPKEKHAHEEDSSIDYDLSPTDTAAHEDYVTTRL

[2] = cytotoxicity in HPDE-C7 cells, cell-based, fluorescence, HTS (AID 430); assay type: functional; conditions: Homo sapiens
[3] = cytotoxicity in KRAS-transformed pancreatic duct cells, primary screen, cell-based, fluorescence, HTS (AID 431); assay type: functional; conditions: Homo sapiens;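 note: cell line used: HPDE-C7K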
[4] = biological target: T2, G-protein coupled receptor 55 (Homo sapiens, UniProt Q9Y2T6); test: GPR55 agonists via beta-arrestin recruitment, primary screen, imaging, U2OS cells, beta-arrestin-GFP redistribution (AID 1961); assay type: functional
[5] = biological target: T3, Type-1 angiotensin II receptor (Homo sapiens, UniProt P30556); test: AT1 receptor agonists, dose response, selectivity assay for APJ receptor agonist project, cell-based, uHTS hits (AID 488865); assay type: functional;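 note: beta-arrestin recruitment to AT1 measured by enzyme fragment complementation luminescence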
T3 sequence (P30556 whole entry): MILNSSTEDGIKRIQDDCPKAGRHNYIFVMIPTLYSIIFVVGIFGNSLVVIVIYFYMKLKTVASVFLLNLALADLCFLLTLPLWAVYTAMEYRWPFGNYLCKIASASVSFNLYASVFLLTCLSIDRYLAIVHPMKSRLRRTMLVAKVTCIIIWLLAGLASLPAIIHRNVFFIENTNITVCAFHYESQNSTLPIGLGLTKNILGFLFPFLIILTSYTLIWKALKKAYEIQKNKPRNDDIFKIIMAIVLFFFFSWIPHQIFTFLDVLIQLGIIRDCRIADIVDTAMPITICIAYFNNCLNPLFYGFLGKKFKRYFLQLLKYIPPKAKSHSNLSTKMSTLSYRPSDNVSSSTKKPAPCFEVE

BJ [6] = test: cytotoxicity toward BJ-TERT-LT-ST fibroblasts, dose response, cell-based, RAS-independent, luminescence (AID 1935); assay type: functional; conditions: Homo sapiens;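 note: BJ fibroblasts immortalized with TERT plus LT and ST oncogenes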
BJ [7] = test: cells; assay type: functional, cell-based; conditions: Homo sapiens
[8] = cytotoxicity toward DRD oncogenic fibroblasts, dose response, cell-based, non-viral oncogenic, luminescence (AID 1934); assay type: functional; conditions: Homo sapiens
[9] = inhibitors of clade B AD8 Env fusion, dose response, cell-based, cherry-pick (AID 652062); assay type: functional;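 note: luciferase signal from cell-cell fusion driven by HIV-1 clade B AD8 Env; potency is for inhibitors of fusion seen as a drop in luminescence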
[10] = biological target: T4, Ubiquitin-conjugating enzyme E2 N (Homo sapiens, UniProt P61088); assay type: functional
T4 sequence (P61088 whole entry): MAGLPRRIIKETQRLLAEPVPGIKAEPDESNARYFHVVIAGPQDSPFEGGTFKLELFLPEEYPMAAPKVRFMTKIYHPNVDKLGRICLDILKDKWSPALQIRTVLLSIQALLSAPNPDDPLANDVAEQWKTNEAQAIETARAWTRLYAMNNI

[11] = CEM21 lymphoblast cell cytotoxicity, dose response, cytotoxicity control for viral fusion inhibitor project, CellTiter-Glo luminescence, cherry-picked (AID 652042); assay type: functional, cell-based;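 note: potency for signal decrease meaning cytotoxicity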
[12] = cytotoxicity toward NIH3T3 fibroblasts, dose response, counter-screen, cell-based, ATP luminescence, mouse fibroblasts (AID 2010); assay type: functional;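 note: cells exposed to compound for about 90 hours before reading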
BJ [13] = test: cytotoxicity toward BJ-TERT fibroblasts, dose response, cell-based, RAS-independent, luminescence (AID 1933); assay type: functional; conditions: Homo sapiens
Bcl-2-related protein A1 = biological target: T5, Bcl-2-related protein A1 (Mus musculus, UniProt Q07440); assay type: functional;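 note: confirmatory dose–response counterscreen on Bfl-1, used to check hits from a UBC13 polyubiquitin inhibitor campaign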
T5 sequence (Q07440 whole entry): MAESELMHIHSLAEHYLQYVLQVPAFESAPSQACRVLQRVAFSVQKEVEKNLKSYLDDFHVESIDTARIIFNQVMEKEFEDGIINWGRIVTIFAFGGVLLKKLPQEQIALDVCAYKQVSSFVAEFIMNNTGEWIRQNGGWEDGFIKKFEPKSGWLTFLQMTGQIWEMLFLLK

[14] = ZM109 Env clade C HIV-1 fusion inhibitors, dose response, HeLa effector, CEM target cells, luciferase, cherry-pick (AID 652058); assay type: functional, cell-based
[15] = inhibitors of HIV Env-driven cell fusion, dose response, cherry-pick (AID 652057); assay type: functional, cell-based
[16] = inhibitors of intracellular T. cruzi replication, confirmation, NIH3T3 host cells, beta-gal luminescence (AID 2044); assay type: functional, cell-based;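 note: intracellular parasites grown in NIH/3T3 mouse fibroblasts as host cells; luminescent beta-galactosidase reporter signal from transgenic T. cruzi replicating inside host cells; inhibitors lower the luminescence signal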
[17] = biological target: T4, Ubiquitin-conjugating enzyme E2 N; assay type: functional; remark: listed apart in the source
[18] = off-target signal loss in HeLa-CEM21 co-culture – HeLa F-luc CTL cells, cherry-picked, counter-screen for HIV-1 Env fusion inhibitor project, dose response (AID 652040); assay type: functional, cell-based;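 note: potency for signal decrease marking cytotoxic or nonspecific inhibition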
Cannabinoid receptor 2 [19] = biological target: T6, Cannabinoid receptor 2 (Homo sapiens, UniProt P34972); test: SAR analysis of antagonists of the Cannabinoid Receptor 2 using an Image-Based Assay - Set 2. [Related pubchem assays (depositor defined):AID1961, AID1965]; assay type: functional
Cannabinoid receptor 2 [20] = biological target: T6, Cannabinoid receptor 2; test: SAR analysis of agonists of the Cannabinoid Receptor 2 using an Image-Based Assay - Set 2. [Related pubchem assays (depositor defined):AID1961, AID1965]; assay type: functional
[21] = biological target: T2, G-protein coupled receptor 55; test: SAR analysis of selective Agonists of GPR55 using an Image-Based Assay - Set 2. [Related pubchem assays (depositor defined):AID1961, AID1965]; assay type: functional
[22] = biological target: T7, G-protein coupled receptor 35 (Homo sapiens, UniProt Q9HC97); test: SAR analysis of Agonists of the GPR35 Receptor using an Image-Based Assay - Set 3. [Related pubchem assays (depositor defined):AID1961, AID1965]; assay type: functional
Cannabinoid receptor 1 [23] = biological target: T8, Cannabinoid receptor 1 (Homo sapiens, UniProt P21554); test: SAR analysis of agonists of the Cannabinoid Receptor 1 using an Image-Based Assay - Set 3. [Related pubchem assays (depositor defined):AID1961, AID1965]; assay type: functional
Cannabinoid receptor 1 [24] = biological target: T8, Cannabinoid receptor 1; test: SAR analysis of antagonists of the Cannabinoid Receptor 1 using an Image-Based Assay - Set 3. [Related pubchem assays (depositor defined):AID1961, AID1965]; assay type: functional
[25] = biological target: T7, G-protein coupled receptor 35; test: SAR analysis of Antagonists of the GPR35 Receptor using an Image-Based Assay - Set 4. [Related pubchem assays (depositor defined):[…]]; assay type: functional
INS1 = test: beta cell apoptosis inhibitors, cytokine rescue, dose response, luminescence, retest (AID 449756); assay type: functional, cell-based; conditions: Rattus norvegicus;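 note: cell death triggered by IL-1 beta plus TNF-alpha plus IFN-gamma mixture; protective hits raise ATP signal compared with cytokine alone wells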
HEK293 [26] = test: NOD2 signaling inhibitors in MDP-stimulated cells, cell-based, uHTS, luminescence (AID 2001); assay type: functional; conditions: Homo sapiens
HEK293 [27] = test: cells; assay type: functional, cell-based; conditions: Homo sapiens
HEK293 [28] = test: cells; assay type: functional, cell-based; conditions: Homo sapiens; remark: listed apart in the source
[29] = biological target: Nucleotide-binding oligomerization domain-containing protein 2 (Homo sapiens, UniProt Q9HC29); test: NOD2 signaling inhibitors, cell-based, luminescence, uHTS, HEK293 (AID 1566); assay type: functional
HEK293 [30] = test: NOD1 signaling inhibitors, primary screen, cell-based, luminescence, uHTS (AID 1578); assay type: functional; conditions: Homo sapiens
[31] = Vero E6 cell cytotoxicity, dose response, cytotoxicity control for non-replicating M. tuberculosis project, secondary assay (AID 492998); assay type: functional, VeroE6; conditions: Vero C1008
[32] = inhibitors of SNCA 5'UTR-driven reporter translation, confirmation, H4 neuroglioma cells, luminescence (AID 1988); assay type: functional, cell-based
[33] = Luminescence Cell-Based Dose Response HTS to Identify Inhibitors of 5'UTR Stem-Loop Driven Prion Protein mRNA Translation in H4 Neuroglioblastoma Cells. [Related pubchem assays: 1827 (Project Summary), 1813 (Primary HTS)]; assay type: functional
[34] = microbe, parasite or virus in culture; assay type: functional; conditions: Mycobacterium tuberculosis
[35] = inhibitors of firefly luciferase expression or activity, dose response, H4 neuroglioma cells, luminescence (AID 1990); assay type: functional, cell-based
[36] = THP-1 cell cytotoxicity, dose response, cytotoxicity control for non-replicating M. tuberculosis project (AID 489025); assay type: functional
cells = assay type: functional
HEK293 [37] = test: cells; assay type: functional, cell-based; conditions: Homo sapiens; remark: listed apart in the source

T6 sequence (P34972 whole entry): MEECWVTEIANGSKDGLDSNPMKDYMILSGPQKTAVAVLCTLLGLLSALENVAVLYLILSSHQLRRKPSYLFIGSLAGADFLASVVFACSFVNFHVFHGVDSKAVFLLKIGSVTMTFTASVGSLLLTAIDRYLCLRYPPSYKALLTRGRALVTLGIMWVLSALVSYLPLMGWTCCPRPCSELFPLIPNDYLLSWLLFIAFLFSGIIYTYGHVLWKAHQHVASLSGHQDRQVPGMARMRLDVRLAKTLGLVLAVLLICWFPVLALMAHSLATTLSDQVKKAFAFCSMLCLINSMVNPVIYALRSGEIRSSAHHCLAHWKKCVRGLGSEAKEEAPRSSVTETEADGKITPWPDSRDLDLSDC
T8 sequence (P21554 whole entry): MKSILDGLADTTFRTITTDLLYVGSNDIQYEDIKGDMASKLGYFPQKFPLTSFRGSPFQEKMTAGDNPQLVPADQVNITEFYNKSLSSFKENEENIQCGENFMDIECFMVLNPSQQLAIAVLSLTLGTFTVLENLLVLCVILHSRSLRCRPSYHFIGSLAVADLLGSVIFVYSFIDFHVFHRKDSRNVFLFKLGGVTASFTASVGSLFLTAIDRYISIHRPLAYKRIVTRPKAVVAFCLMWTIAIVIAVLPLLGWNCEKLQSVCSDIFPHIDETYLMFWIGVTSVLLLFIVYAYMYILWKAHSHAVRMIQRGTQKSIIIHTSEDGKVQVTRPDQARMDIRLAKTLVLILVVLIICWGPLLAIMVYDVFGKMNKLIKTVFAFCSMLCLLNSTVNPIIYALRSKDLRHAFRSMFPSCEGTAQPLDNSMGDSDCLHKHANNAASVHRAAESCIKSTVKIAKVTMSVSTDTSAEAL
T2 sequence (Q9Y2T6 whole entry, the tested form may be a part): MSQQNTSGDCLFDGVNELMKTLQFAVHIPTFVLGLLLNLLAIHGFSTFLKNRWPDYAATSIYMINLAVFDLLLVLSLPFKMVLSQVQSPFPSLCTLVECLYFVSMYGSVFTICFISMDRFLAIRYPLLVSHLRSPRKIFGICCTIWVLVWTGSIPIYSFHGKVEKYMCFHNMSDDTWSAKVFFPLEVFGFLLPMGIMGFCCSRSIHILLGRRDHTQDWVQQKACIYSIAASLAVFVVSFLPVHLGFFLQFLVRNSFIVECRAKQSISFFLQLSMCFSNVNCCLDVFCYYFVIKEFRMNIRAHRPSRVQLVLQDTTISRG
T7 sequence (Q9HC97 whole entry): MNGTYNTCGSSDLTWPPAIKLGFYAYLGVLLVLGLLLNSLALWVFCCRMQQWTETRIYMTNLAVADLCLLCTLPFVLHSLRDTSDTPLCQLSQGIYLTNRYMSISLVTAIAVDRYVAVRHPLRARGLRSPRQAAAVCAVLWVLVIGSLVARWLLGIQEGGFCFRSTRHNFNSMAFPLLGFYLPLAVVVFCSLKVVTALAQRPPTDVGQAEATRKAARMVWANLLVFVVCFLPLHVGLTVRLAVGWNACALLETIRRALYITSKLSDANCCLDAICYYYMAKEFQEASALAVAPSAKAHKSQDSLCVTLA
Sequence of Nucleotide-binding oligomerization domain-containing protein 2 (Q9HC29 whole entry, the tested form may be a part): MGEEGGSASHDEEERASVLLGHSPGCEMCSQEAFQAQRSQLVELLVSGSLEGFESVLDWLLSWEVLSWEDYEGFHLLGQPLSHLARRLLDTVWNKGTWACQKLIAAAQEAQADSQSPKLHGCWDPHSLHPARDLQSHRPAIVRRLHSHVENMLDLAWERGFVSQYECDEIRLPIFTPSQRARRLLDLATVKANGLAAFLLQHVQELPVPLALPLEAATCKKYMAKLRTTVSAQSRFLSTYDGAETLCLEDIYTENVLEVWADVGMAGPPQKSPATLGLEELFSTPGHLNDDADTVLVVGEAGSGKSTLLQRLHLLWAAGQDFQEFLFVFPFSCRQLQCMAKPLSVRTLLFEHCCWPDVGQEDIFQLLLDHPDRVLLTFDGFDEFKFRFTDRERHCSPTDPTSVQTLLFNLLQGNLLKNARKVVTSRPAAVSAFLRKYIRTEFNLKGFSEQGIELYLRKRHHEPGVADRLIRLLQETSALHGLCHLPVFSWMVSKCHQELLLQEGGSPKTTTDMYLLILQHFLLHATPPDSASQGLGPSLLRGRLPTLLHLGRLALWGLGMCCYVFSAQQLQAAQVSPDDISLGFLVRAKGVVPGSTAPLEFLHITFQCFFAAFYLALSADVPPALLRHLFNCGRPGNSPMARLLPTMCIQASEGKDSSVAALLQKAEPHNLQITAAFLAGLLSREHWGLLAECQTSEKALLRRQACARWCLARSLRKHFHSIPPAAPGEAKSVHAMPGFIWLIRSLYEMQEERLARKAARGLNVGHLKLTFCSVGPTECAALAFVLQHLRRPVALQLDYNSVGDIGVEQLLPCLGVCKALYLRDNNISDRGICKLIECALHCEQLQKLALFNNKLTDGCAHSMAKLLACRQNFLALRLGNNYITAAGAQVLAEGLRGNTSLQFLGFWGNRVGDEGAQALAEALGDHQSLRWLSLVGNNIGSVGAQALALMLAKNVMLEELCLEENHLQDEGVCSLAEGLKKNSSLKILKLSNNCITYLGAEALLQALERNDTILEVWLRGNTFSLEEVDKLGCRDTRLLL

CCCC1(c2ccccc2)NC(=O)N(CC(=O)c2[nH]c(C)c(C(=O)OCC)c2C)C1=O (configuration not stated)
EC50 [1]: 2.66 µM (active) | EC50 [2]: > 20 µM (not active) | EC50 [3]: > 20 µM (not active)

COc1ccccc1OCC(=O)/C=C1/N(C)c2ccccc2C1(C)C
EC50 [4]: 5.48 µM (active)

COc1ccc2sc(N(CCCN(C)C)C(=O)c3ccc(S(=O)(=O)N4CCc5ccccc5C4)cc3)nc2c1
EC50 [5]: > 100 µM (inactive) | EC50 (BJ [6]): 4.5 µM (inconclusive) | EC50 (BJ [7]): 10 µM (active) | EC50 [8]: 5.14 µM (inconclusive) | AC50 [9]: 6.84 µM (active) | IC50 [10]: 8.44 µM (active) | AC50 [11]: 3.7 µM (active) | EC50 [12]: 5.73 µM (active) | EC50 (BJ [13]): 2.75 µM (inconclusive) | IC50 (Bcl-2-related protein A1): > 20 µM (inactive) | AC50 [14]: 9.11 µM (active) | AC50 [15]: 6.44 µM (active) | EC50 [16]: 228 nM (active) | IC50 [17]: 8.54 µM (active) | AC50 [18]: 8.3 µM (active)

CC(C)Oc1ccc(S(=O)(=O)N2CCOCC2)cc1NC(=O)c1cc2ccccc2s1
IC50 (Cannabinoid receptor 2 [19]): > 32 µM (inactive) | EC50 (Cannabinoid receptor 2 [20]): > 32 µM (inactive) | EC50 [21]: > 32 µM (inactive) | EC50 [22]: > 32 µM (inactive) | EC50 (Cannabinoid receptor 1 [23]): > 32 µM (inactive) | IC50 (Cannabinoid receptor 1 [24]): > 32 µM (inactive) | IC50 [25]: > 32 µM (inactive)

Cc1cc(N/N=C/c2ccccc2[N+](=O)[O-])nc(-n2nc(C)cc2C)n1
AC50 (INS1): 2.77 µM (active) | IC50 (HEK293 [26]): 6.54 µM (inactive) | IC50 (HEK293 [27]): > 20 µM (inactive) | IC50 (HEK293 [28]): 15.6 µM (active) | EC50 [29]: > 20 µM (inactive) | EC50 (HEK293 [30]): 6.21 µM (active) | CC50 [31]: 6.96 µM (active) | EC50 [32]: > 120 µM (not active) | EC50 [12]: 7.48 µM (active) | EC50 [33]: 13.1 µM (active) | EC50 [16]: 2260 nM (active) | CC50 [34]: 15.5 µM (active) | EC50 [35]: 13.3 µM (active) | CC50 [36]: 4.01 µM (active) | IC50 (cells): 600 nM (active) | IC50 (HEK293 [37]): > 20 µM (inactive)
